Earlier results on 2 substances are cited in article PMC4336743, “Improved production of sublancin via introduction of three characteristic promoters into operon clusters responsible for this novel distinct glycopeptide biosynthesis” (Microbial Cell Factories, 2015).

For one data set, the system named is proteinases, peptidases. Here is the method:
Proteolytic susceptibility of sublancin should also be considered in various applications such as in treating bacterial–mediated mastitis or bacterial–mediated gastroenteritis. Therefore, a number of bacterial proteases and gastrointestinal digestive enzymes, e.g., P. aeruginosa elastase and S. aureus V8 protease, pepsin and trypsin would certainly be encountered. […] All experiments were performed in vitro; therefore in vivo studies should be conducted prior to clinical ap ...

The subject of a further data set is S. aureus. The method, then: Antibacterial activity and cytotoxicity of sublancin were also evaluated. […] These findings are consistent with previously reported study and is almost equal to that of nisin that is a common and typical antimicrobial peptide from Lactococcus lactis, and is widely used in clinical and food preservation applications, with MIC of 0.5 mg/L against S. aureus.

With Bovicin HC5, the “antimicrobial potency after exposure to proteinases, peptidases and heat” value with proteinases, peptidases is reported as “remarkable antimicrobial potency reduction”.

Consider nisin, for which, in the data set with S. aureus, the “MIC against S. aureus” value is 0.5 µg/mL.
